According to patent US20030207791A1, “Materials and methods relating to the treatment of leukaemias” (priority 2000, published 2003):

Experiments:
Format in all cases: cell-based
[1] = system: murine hematopoietic progenitors (lin-); experiment: In vitro differentiation of murine hematopoietic progenitor cells transduced with retroviral constructs; conditions: control cells, RA 3 nM or 1 μM; maximum; as described (Purton et al., 1999)
Description: FIG. 5. A heterologous oligomerization domain activates the transforming potential of RAR. (A-B) p53-RAR form oligomers. (A) Nuclear extracts from COS-1 cells transfected with expression vectors for p53-RAR or RAR were incubated with tritiated RA (10 nM), fractionated and analysed as described in FIG. 3A. Note that the low MW peak of RA-binding capacity (coinciding with RAR) in p53-RAR cells derives from expression of wild type RAR, starting from its own ATG-conserved in the p53-RAR expression vector (see below)-. (B) Fractions from gel filtration of in vitro translated, ^35-S labelled p53-RAR were analysed by SDS-PAGE, followed by autoradiography. Note that two products are generated in the reaction: full-length p53-RAR, fractionating in oligomeric complexes, and RAR, starting from the internal ATG site of RAR and fractionating as a monomer. […] After sorting, cells were either plated in differentiation medium in the absence or in the presence of RA (3 nM or 1 μM) (C), or analysed by Western blot (D). […]
The capacity of p53-RAR to block differentiation was evaluated using primary hematopoietic precursors purified from murine bone marrow on the basis of the absence of surface differentiation antigens (lin-see methods). […] After 8-10 days, colonies were pooled and analysed for the expression of myeloid differentiation markers (Mac-1 and GR-1). […]

ΔCC-PML-RAR = experiment: RA sensitivity of transcriptional repression, RARE-G5-TATA reporter; conditions: RA 1 nM-10 μM, repression by ΔCC-PML-RAR
From the text: Light units were normalized to expression of a co-transfected β-galactosidase expression plasmid.

[2] = system: PML-RAR expressing murine primary haemopoietic precursors; experiment: RA relief of differentiation block in transduced murine primary haemopoietic precursors; conditions: RA 3 nM or 1 μM, block by PML-RAR
From the text: (§1) FIG. 5. […] (C-D) Effects of RAR chimeric proteins on differentiation of murine hematopoietic progenitors. Lin-cells were transduced with the indicated retroviral vectors and then sorted by FACS on the basis of their GFP positivity. In the case of ΔCC-PML-RAR, GFP+ cells were sorted in GFP^high or GFP^low expressors.
(§2) Murine hematopoietic progenitors were purified from the bone marrow of 12 weeks old BALB-C mice using commercially available kits (StemCell Tecnology). Cells were selected on the basis of the absence of lineage differentiation markers (lin−). Purified cells were pre-stimulated for two days in medium containing IL-3 (20 ng/ml), IL-6 (20 ng/ml) and stem cell factor (SCF, 100 ng/ml) and then attached to Retronectin (Takara Shuzo)-coated multiwell plates. Cells were incubated for 48 hours with the filtered supernatant from ecotropic packaging cells (Phoenix) transiently transfected with the indicated retroviral constructs (Grignani et al., 1998).

[3] = system: CC-RAR expressing murine primary haemopoietic precursors; experiment: as above; conditions: RA 3 nM or 1 μM, block by CC-RAR
From the text: as §1, §2

CC1=C(/C=C/C(C)=C/C=C/C(C)=C/C(=O)O)C(C)(C)CCC1 [RA, retinoic acid]
reduction in the number of Mac1+ cells [1]: 20-30% | RA concentration that reverted transcriptional repression (ΔCC-PML-RAR): up to 100 nM | RA concentration that relieved the differentiation block [2]: 1 µM | RA concentration that relieved the differentiation block [3]: 1 µM
